# Experimental data from patent publication US20080254462A1, “ALTERED ZDHHC8 EXPRESSION AS A MARKER OF INCREASED RISK OF SCHIZOPHRENIA” (priority 2005, published 2008).
# What was measured:
# [1] = tested on: homozygous Zdhhc8 mutant mice and wild-type littermate controls; test: Locomotor activating effects of MK801 in the open field; type: in vivo
# Method: Open field assay. Animals were not pre-exposed to the chamber before testing. Activity was monitored in a clear acrylic chamber directly illuminated and equipped with infrared sensors for the automatic recording of horizontal and vertical activity (Colbourn Instruments). Each animal was placed initially in the periphery of the chamber, and recordings of the total distance traveled, the number of rearings (vertical moves) and the number of entries in the centerfield over the next 15 min were used as a measure of a locomotor response to novelty. 47 female mice (17 homozygous Zdhhc8 mutant, 17 heterozygous Zdhhc8 mutant and 13 wild-type littermate controls) and 45 male mice (13 homozygous Zdhhc8 mutant, 19 heterozygous Zdhhc8 mutant and 13 wild-type littermate controls) were tested.
# Drug administration. MK801 was purchased from Sigma. Each experimental group consisted of 8-10 mice, which received the same number of injections, administered intraperitoneally, of either drug (0.4 mg per kg body weight) or vehicle. After 30 minutes of prehabituation in the open field, the mice were removed, injected and then left to rest for 10 minutes in their home cage before returning them to the open field arena, where they were monitored for an additional 30 minutes. […]
# [2] = tested on: PSD95 (Post-Synaptic Density-95)
Compound,"Sensitivity to MK801-induced stimulation of locomotor activity (ratio of activity after injection to activity before injection) ([1]; homozygous Zdhhc8 mutant female mice vs wild-type littermate controls, 0.4 mg per kg intraperitoneally, P=0.05, not in males)","Locomotor stimulation after MK801 injection ([1]; open field, 0.4 mg per kg body weight intraperitoneally, 30 minutes before and 30 minutes after injection, both genotypes, females and males)",metabolic labeling assay (palmitoylation of PSD95) [2]
"C[C@]12N[C@H](Cc3ccccc31)c1ccccc12 [MK801, dizocilpine]",somewhat less sensitive to MK801-induced stimulation of locomotor activity than wild-type littermate controls,Locomotor stimulation after MK801 injection was observed in both genotypes in both females (E) and males (F),–
"ZDHHC8 mutant ""230"" (lacks the entire C-terminal domain)",–,–,this form shows no essentially no activity when compared with vector-only control
